Experimental findings from patent US12485191B2, “Radiopharmaceuticals and methods of use thereof” (BOARD OF REGENTS OF THE UNIVERSITY OF NEBRASKA, priority 2017, dated 2025) are described below.

Molecules are shown by their SMILES.

One data set has as its target CatB (Homo sapiens, UniProt P07858). In words: CatB inhibition of GRPR-targeted agents. Type of data set: biochemical. The procedure: The Inhibition of Cathepsin B Activity by the Conjugates The phosphate buffer (0.1 M, pH=5.8) containing EDTA (1 mM), DTT (2.7 mM), and Brij®35 (0.03%) was prepared before the assay. […] The solution of cathepsin B (human Liver) in assay buffer (50 μL, 0.544 nM) was added to the mixture which was further incubated at 37° C. for 20 minutes. The fluorescence of the liberated aminomethylcoumarin at 460 nM using 355 nm excitation was measured and the IC50 of the cathepsin B inhibition versus the samples without the inhibitor was determined by nonlinear regression using GraphPad Prism 5.

A further data set has as its target GRPR (Homo sapiens, UniProt P30550). The experiment in a line: GRPR affinity of GRPR-targeted agents. Type of data set: binding.
Another data set has as its system PC-3 tumor. Particulars: mouse, in vivo.

Chain of GRPR (P30550 whole entry): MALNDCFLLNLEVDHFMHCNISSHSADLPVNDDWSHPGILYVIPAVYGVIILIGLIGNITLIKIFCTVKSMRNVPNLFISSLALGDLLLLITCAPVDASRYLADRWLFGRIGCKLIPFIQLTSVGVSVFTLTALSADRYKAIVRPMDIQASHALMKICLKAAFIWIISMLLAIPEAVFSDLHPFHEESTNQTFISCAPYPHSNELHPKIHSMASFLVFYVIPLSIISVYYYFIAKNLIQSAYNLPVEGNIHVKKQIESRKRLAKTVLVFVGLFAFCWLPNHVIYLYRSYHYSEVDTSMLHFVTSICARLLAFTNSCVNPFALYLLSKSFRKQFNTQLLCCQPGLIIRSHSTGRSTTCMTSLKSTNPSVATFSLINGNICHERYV

As to `CSCC[C@H](NC(=O)[C@H](CC(C)C)NC(=O)[C@H](Cc1c[nH]cn1)NC(=O)CNC(=O)[C@@H](NC(=O)[C@H](C)NC(=O)[C@H](Cc1c[nH]c2ccccc12)NC(=O)[C@H](CCC(N)=O)NC(=O)CCOCCOCCOCCOCCNC(=O)[C@H](Cc1cn(CCNC(=O)[C@H](CCCNC(=N)N)NC(=O)[C@H](CC(C)C)NC(=O)CCC(=O)O)nn1)NC(=O)CN1CCN(CC(=O)O)CCN(CC(=O)O)CCN(CC(=O)O)CC1)C(C)C)C(N)=O` [^177Lu-C-AG, metal not drawn], the IC50 on CatB was > 200000 nM; on GRPR, 16.5 ± 3.3 nM. Also, in the data set on PC-3 tumor, the tumor retention is reported as 32%.
